Source: US11198713B2, “Agents modulating beta-catenin functions and methods thereof” (FOG PHARMACEUTICALS, INC., priority 2017, dated 2021)
pEC50: −log10 of the molar value. Numbered stars: 1 amine (or outer) side, 2 acyl side, 3 side chain; on linkers, the order of the positions; unused ones are H or OH. Bridge positions count the residues as written; N and C are the ends. Square brackets hold non-standard residues; d marks the D form. Peptide text beside a SMILES is read from it. 3Aminoazetidine3carboxyl = O=C(C1(N[*:1])CN([*:3])C1)[*:2]; dαMeOrn(Me) = CN(CCC[C@@](C)(N[*:1])C(=O)[*:2])[*:3]; dαMeDap(Me) = CN(C[C@@](C)(N[*:1])C(=O)[*:2])[*:3]; X1 = O=C([C@]1(N[*:1])CCN([*:3])C1)[*:2]; X2 = O=C(OCC=CCOC(=O)[*:2])[*:1]

The molecules below were run against T1, full-length beta-catenin (Axin site) (Homo sapiens, UniProt P35222) (assay: Competition fluorescence polarization assay (Axin site probe)). Conditions: competition fluorescence polarization, Table 2; read-out: in vitro FP EC50.
T1 construct: 15 nM full-length beta-catenin, 20 nM FITC labeled peptide in buffer
T1 sequence (P35222 1-781): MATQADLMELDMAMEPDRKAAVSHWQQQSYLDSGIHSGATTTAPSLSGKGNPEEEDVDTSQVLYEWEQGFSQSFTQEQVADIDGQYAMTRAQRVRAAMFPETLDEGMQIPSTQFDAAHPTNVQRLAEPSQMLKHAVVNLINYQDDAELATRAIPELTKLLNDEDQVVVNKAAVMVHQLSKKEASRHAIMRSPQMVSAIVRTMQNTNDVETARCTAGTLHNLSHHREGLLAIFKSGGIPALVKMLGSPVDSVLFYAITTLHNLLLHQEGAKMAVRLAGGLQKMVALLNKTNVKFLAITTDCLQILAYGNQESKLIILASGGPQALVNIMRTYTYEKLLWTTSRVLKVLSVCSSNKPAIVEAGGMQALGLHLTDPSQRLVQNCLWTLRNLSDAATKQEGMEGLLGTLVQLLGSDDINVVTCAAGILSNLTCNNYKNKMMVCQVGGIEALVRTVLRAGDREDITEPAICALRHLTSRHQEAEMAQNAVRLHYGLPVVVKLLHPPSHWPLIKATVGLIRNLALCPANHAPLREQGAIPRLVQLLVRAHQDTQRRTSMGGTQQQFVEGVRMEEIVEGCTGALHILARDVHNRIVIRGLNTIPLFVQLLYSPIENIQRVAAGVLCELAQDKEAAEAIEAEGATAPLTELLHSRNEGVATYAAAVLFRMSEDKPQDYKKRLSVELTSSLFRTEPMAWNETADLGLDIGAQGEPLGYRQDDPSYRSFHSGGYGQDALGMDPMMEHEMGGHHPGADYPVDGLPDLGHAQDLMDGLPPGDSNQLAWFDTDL
Type: binding
Procedure, shortened: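 Competition FP: 15 nM full-length β-catenin pre-incubated 5 min with 20 nM FITC-labelled stapled Axin-site peptide, then titrated peptide added (3-fold series from 5 μM) for 15 min in the dark. Buffer 50 mM Tris pH 8.0, 250 mM NaCl, 2% glycerol, 0.5 mM EDTA; duplicate reads.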

First: CC[C@H](C)[C@@H]1NC(=O)[C@H](Cc2c[nH]cn2)NC(=O)[C@H](C)NC(=O)[C@H](CC(=O)O)NC(=O)[C@H](CC(C)C)NC(=O)[C@H]([C@@H](C)CC)NC(=O)[C@](C)(NC(=O)[C@H](C)NC(C)=O)CCCCC=CCOC(=O)N(C)CC[C@@](C)(C(=O)N[C@@H](CCCNC(=N)N)C(=O)N[C@H](C(=O)N[C@@H](Cc2c[nH]c3ccccc23)C(N)=O)C(C)C)NC1=O (single isomer, unassigned) [FP0502c Isomer 1, Ac-A-R6-I-L-D-A-H-I-MF-R-V-W-NH2]
Second: CC[C@H](C)[C@@H]1NC(=O)[C@H](Cc2c[nH]cn2)NC(=O)[C@H](C)NC(=O)[C@H](CC(=O)O)NC(=O)[C@H](CC(C)C)NC(=O)[C@H]([C@@H](C)CC)NC(=O)C2(NC(=O)[C@H](C)NC(C)=O)CN(C2)C(=O)OCC=CCOC(=O)N(C)CCC[C@](C)(C(=O)N[C@@H](CCCNC(=N)N)C(=O)N[C@H](C(=O)N[C@@H](Cc2c[nH]c3ccccc23)C(N)=O)C(C)C)NC1=O [FP0625c, Ac-A-MA-I-L-D-A-H-I-MI-R-V-W-NH2] (Ac-A[3Aminoazetidine3carboxyl]ILDAHI[dαMeOrn(Me)]RVW-NH2; linker 2-9 via X2)
The pEC50 of the first is higher: > 7.00 for the first, 6.30 to 7.00 for the second. The first is the more potent here.

`CC[C@H](C)[C@@H]1NC(=O)[C@H](Cc2ccccn2)NC(=O)[C@H](C)NC(=O)[C@H](CC(=O)O)NC(=O)[C@H](CC(C)C)NC(=O)[C@H]([C@@H](C)CC)NC(=O)[C@](C)(NC(=O)[C@H](C)NC(C)=O)CCCCCCC=CCOC(=O)N2CC[C@@](C(=O)N[C@@H](CC3CCCCC3)C(=O)N[C@H](C(=O)N[C@@H](Cc3c[nH]c4ccccc34)C(N)=O)C(C)C)(C2)NC1=O` (single isomer, unassigned) [FP0566c Isomer 1, Ac-A-R8-I-L-D-A-2pyr-I-MB-Cha-V-W-NH2] and `CC[C@H](C)[C@@H]1NC(=O)[C@H](Cc2ccccn2)NC(=O)[C@H](C)NC(=O)[C@H](CC(=O)O)NC(=O)[C@H](CC(C)C)NC(=O)[C@H]([C@@H](C)CC)NC(=O)[C@](C)(NC(=O)[C@H](C)NC(C)=O)CCCCCCC=CCOC(=O)N2CC[C@@](C(=O)N[C@@H](CC(C)C)C(=O)N[C@H](C(=O)N[C@@H](Cc3c[nH]c4ccccc34)C(N)=O)C(C)C)(C2)NC1=O` (single isomer, unassigned) [FP0557c Isomer 2, Ac-A-R8-I-L-D-A-2pyr-I-MB-L-V-W-NH2] cannot be ordered by pEC50: < 5.30 for the first, < 5.30 for the second.

First: CC[C@H](C)[C@@H]1NC(=O)[C@H](Cc2c[nH]cn2)NC(=O)[C@H](C)NC(=O)[C@H](CC(=O)O)NC(=O)[C@H](CC(C)C)NC(=O)[C@H]([C@@H](C)CC)NC(=O)[C@](C)(NC(=O)[C@H](C)NC(C)=O)CN(C)C(=O)OCC=CCOC(=O)N2CC[C@@](C(=O)N[C@@H](CCCNC(=N)N)C(=O)N[C@H](C(=O)N[C@@H](Cc3c[nH]c4ccccc34)C(N)=O)C(C)C)(C2)NC1=O [FP0604c, Ac-A-ME-I-L-D-A-H-I-MB-R-V-W-NH2] (Ac-A[dαMeDap(Me)]ILDAHI[X1]RVW-NH2; linker 2-9 via X2)
Second: CC[C@H](C)[C@@H]1NC(=O)[C@H](Cc2c[nH]cn2)NC(=O)[C@H](C)NC(=O)[C@H](CC(=O)O)NC(=O)[C@H](CC(C)C)NC(=O)[C@H]([C@@H](C)CC)NC(=O)[C@](C)(NC(=O)[C@H](C)NC(C)=O)CCCCCCC=CCOC(=O)N2CC[C@@](C(=O)N[C@@H](CO)C(=O)N[C@H](C(=O)N[C@@H](Cc3c[nH]c4ccccc34)C(N)=O)C(C)C)(C2)NC1=O [FP0542c, Ac-A-R8-I-L-D-A-H-I-MB-S-V-W-NH2]
The pEC50 of the first is higher: > 7.00 for the first, 5.30 to 6.30 for the second.

First: CC[C@H](C)[C@@H]1NC(=O)[C@@]2(NC(=O)[C@H](C)NC(=O)[C@@H]3CCCN3C(C)=O)CCN(C2)C(=O)OCC=CCCCCCC[C@@](C)(C(=O)N[C@@H](CCCNC(=N)N)C(=O)N[C@H](C(=O)N[C@@H](Cc2c[nH]c3ccccc23)C(N)=O)C(C)C)NC(=O)[C@H](C(C)C)NC(=O)[C@H](Cc2c[nH]cn2)NC(=O)[C@H](C)NC(=O)[C@H](CC(=O)O)NC(=O)[C@H](CC(C)C)NC1=O [FP0005c, Ac-P-A-MC-I-L-D-A-H-V-S8-R-V-W-NH2]
Second: CC[C@H](C)[C@@H]1NC(=O)[C@H](Cc2c[nH]cn2)NC(=O)[C@H](C)NC(=O)[C@H](CC(=O)O)NC(=O)[C@H](CC(C)C)NC(=O)[C@H]([C@@H](C)CC)NC(=O)[C@](C)(NC(=O)[C@H](C)NC(C)=O)CCCCCCC=CCOC(=O)N2CC[C@@](C(=O)N[C@@H](CCCNC(=N)N)C(=O)N[C@@](C)(CC(C)C)C(=O)N[C@@H](Cc3c[nH]c4ccccc34)C(N)=O)(C2)NC1=O [FP0633c, Ac-A-R8-I-L-D-A-H-I-MB-R-aMeL-W-NH2]
The pEC50 of the first is higher: > 7.00 for the first, 5.30 to 6.30 for the second. The first is the more potent here.

`CC[C@H](C)[C@@H]1NC(=O)[C@@](C)(NC(=O)[C@H](CCC(N)=O)NC(=O)[C@@H]2CCCN2C(C)=O)CCN(C)C(=O)OCC=CCCC[C@@](C)(C(=O)N[C@@H](Cc2c[nH]cn2)C(=O)N[C@H](C(=O)N[C@@H](CCCNC(=N)N)C(=O)N[C@@H](CCCNC(=N)N)C(=O)N[C@H](C(=O)N[C@@H](Cc2c[nH]c3ccccc23)C(=O)N[C@@H](CCCNC(=N)N)C(N)=O)C(C)C)C(C)C)NC(=O)[C@H](CC(=O)O)NC(=O)[C@H](CC(C)C)NC1=O` (single isomer, unassigned) [FP0779c, Ac-P-Q-MF-I-L-D-S5-H-V-R-R-V-W-R-NH2] and `CC[C@H](C)[C@@H]1NC(=O)[C@@](C)(NC(=O)[C@H](CCC(N)=O)NC(=O)[C@@H]2CCCN2C(C)=O)CN(C)C(=O)OCC=CCCC[C@@](C)(C(=O)N[C@@H](Cc2c[nH]cn2)C(=O)N[C@H](C(=O)N[C@@H](CCCNC(=N)N)C(=O)N[C@@H](CCCNC(=N)N)C(=O)N[C@H](C(=O)N[C@@H](Cc2c[nH]c3ccccc23)C(=O)N[C@@H](CCCNC(=N)N)C(N)=O)C(C)C)C(C)C)NC(=O)[C@H](CC(=O)O)NC(=O)[C@H](CC(C)C)NC1=O` (single isomer, unassigned) [FP0778c, Ac-P-Q-MD-I-L-D-S5-H-V-R-R-V-W-R-NH2] fall in the same range of pEC50: 5.30 to 6.30 for the first, 5.30 to 6.30 for the second.

First: CC[C@H](C)[C@@H]1NC(=O)[C@](C)(NC(=O)[C@H](CCC(N)=O)NC(=O)[C@@H]2CCCN2C(C)=O)CCCC=CCN(C)CC[C@](C)(C(=O)N[C@@H](Cc2c[nH]cn2)C(=O)N[C@H](C(=O)N[C@@H](CCCNC(=N)N)C(=O)N[C@@H](CCCNC(=N)N)C(=O)N[C@H](C(=O)N[C@@H](Cc2c[nH]c3ccccc23)C(=O)N[C@@H](CCCNC(=N)N)C(N)=O)C(C)C)C(C)C)NC(=O)[C@H](CC(=O)O)NC(=O)[C@H](CC(C)C)NC1=O (single isomer, unassigned) [FP0776a, Ac-P-Q-R5-I-L-D-MG-H-V-R-R-V-W-R-NH2]
Second: CC[C@H](C)[C@@H]1NC(=O)[C@@](C)(NC(=O)[C@H](CCC(N)=O)NC(=O)[C@@H]2CCCN2C(C)=O)CCCC=CCN2CC(C(=O)N[C@@H](Cc3c[nH]cn3)C(=O)N[C@H](C(=O)N[C@@H](CCCNC(=N)N)C(=O)N[C@@H](CCCNC(=N)N)C(=O)N[C@H](C(=O)N[C@@H](Cc3c[nH]c4ccccc34)C(=O)N[C@@H](CCCNC(=N)N)C(N)=O)C(C)C)C(C)C)(C2)NC(=O)[C@H](CC(=O)O)NC(=O)[C@H](CC(C)C)NC1=O (single isomer, unassigned) [FP0734a, Ac-P-Q-S5-I-L-D-MA-H-V-R-R-V-W-R-NH2]
The pEC50 of the first is higher: 5.30 to 6.30 for the first, < 5.30 for the second. The first is the more potent here.

With `CC[C@H](C)[C@@H]1NC(=O)[C@](C)(NC(=O)[C@H](CCC(N)=O)NC(=O)[C@@H]2CCCN2C(C)=O)CCC=CCOC(=O)N2CC(C(=O)N[C@@H](Cc3c[nH]cn3)C(=O)N[C@H](C(=O)N[C@@H](CCCNC(=N)N)C(=O)N[C@@H](CCCNC(=N)N)C(=O)N[C@H](C(=O)N[C@@H](Cc3c[nH]c4ccccc34)C(=O)N[C@@H](CCCNC(=N)N)C(N)=O)C(C)C)C(C)C)(C2)NC(=O)[C@H](CC(=O)O)NC(=O)[C@H](CC(C)C)NC1=O` (single isomer, unassigned) [FP0731c, Ac-P-Q-R4-I-L-D-MA-H-V-R-R-V-W-R-NH2] the pEC50 was 5.30 to 6.30.

Same assay, conditions: competition with FITC labeled Axin-site probe, 15 nM full-length beta-catenin; read-out: FP EC50

In order of falling pEC50:
1. CC[C@H](C)[C@@H]1NC(=O)C2(NC(=O)[C@H](CCC(N)=O)NC(=O)[C@@H]3CCCN3C(C)=O)CN(C2)C(=O)OCC=CCC[C@](C)(C(=O)N[C@@H](Cc2c[nH]cn2)C(=O)N[C@H](C(=O)N[C@@H](CCCNC(=N)N)C(=O)N[C@@H](CCCNC(=N)N)C(=O)N[C@H](C(=O)N[C@@H](Cc2c[nH]c3ccccc23)C(=O)N[C@@H](CCCNC(=N)N)C(N)=O)C(C)C)C(C)C)NC(=O)[C@H](CC(=O)O)NC(=O)[C@H](CC(C)C)NC1=O (single isomer, unassigned) [FP-0721c, Ac-P-Q-Az-I-L-D-R4-H-V-R-R-V-W-R-NH2]  5.89
2. CC[C@H](C)[C@@H]1NC(=O)[C@@](C)(NC(=O)[C@H](CCC(N)=O)NC(=O)[C@@H]2CCCN2C(C)=O)CCN(C)C(=O)OCC=CCCC[C@@](C)(C(=O)N[C@@H](Cc2c[nH]cn2)C(=O)N[C@H](C(=O)N[C@@H](CCCNC(=N)N)C(=O)N[C@@H](CCCNC(=N)N)C(=O)N[C@H](C(=O)N[C@@H](Cc2c[nH]c3ccccc23)C(=O)N[C@@H](CCCNC(=N)N)C(N)=O)C(C)C)C(C)C)NC(=O)[C@H](CC(=O)O)NC(=O)[C@H](CC(C)C)NC1=O (single isomer, unassigned) [FP-0779c, Ac-P-Q-SdN-I-L-D-S5-H-V-R-R-V-W-R-NH2]  5.89
